Experimental data taken from PMC3092815 (Proteins, 2011).

Tests used:
[1] = target: T1, C. perfringens PepcA (archaeal-type phosphoenolpyruvate carboxylase) (Clostridium perfringens, UniProt Q8XLE8); test: biochemical
[2] = target: T1, C. perfringens PepcA (archaeal-type phosphoenolpyruvate carboxylase)

Compound	Ki [1] [µM]	Km [2] [µM]
N[C@@H](CC(=O)O)C(=O)O [aspartate]	200	
Mg^++.PEP		60
